Experimental data: patent US20060120956A1, “Imaging agents comprising barbituric acid derivatives” (priority 2002, published 2006)
Where two headings read alike, the source gives them in different places.

Legend:
MMP-2 [1] = biological target: T1, MMP-2 (Homo sapiens, UniProt P08253); conditions: read-out: MMP-2 IC50; fluorogenic substrate 1 μM, MMP 1 nM, inhibitor 1000 pM-100 μM
T1 sequence (P08253 110-660): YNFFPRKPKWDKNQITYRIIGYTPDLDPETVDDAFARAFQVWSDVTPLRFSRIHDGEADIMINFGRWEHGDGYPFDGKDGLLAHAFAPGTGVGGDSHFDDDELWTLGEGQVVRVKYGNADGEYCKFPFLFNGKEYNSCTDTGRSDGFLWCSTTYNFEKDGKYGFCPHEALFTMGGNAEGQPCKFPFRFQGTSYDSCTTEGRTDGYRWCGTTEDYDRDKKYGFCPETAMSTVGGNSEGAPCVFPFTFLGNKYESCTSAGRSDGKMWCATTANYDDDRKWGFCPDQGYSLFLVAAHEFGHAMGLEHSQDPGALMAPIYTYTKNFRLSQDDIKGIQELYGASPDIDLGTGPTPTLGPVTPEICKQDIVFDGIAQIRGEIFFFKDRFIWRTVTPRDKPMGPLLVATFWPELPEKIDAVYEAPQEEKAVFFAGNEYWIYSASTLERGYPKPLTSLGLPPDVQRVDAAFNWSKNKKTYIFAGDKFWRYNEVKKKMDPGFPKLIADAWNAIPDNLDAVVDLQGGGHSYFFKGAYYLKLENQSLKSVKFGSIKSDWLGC
Description: Thus, a constant concentration of the fluorogenic substrate (1 μM) and the respective MMPs (1 nM) were incubated with increasing amounts of the MMP-inhibitors (1000 pM-100 μM) to determine their IC50 values.

MMP-9 [2] = biological target: T2, MMP-9 (Homo sapiens, UniProt P14780); test: In vitro metalloproteinase inhibition assay, fluorogenic substrate (method of Huang et al.); assay type: biochemical; conditions: fluorogenic substrate 1 μM, MMP 1 nM, inhibitor 1000 pM-100 μM
Description: In Vitro Metalloproteinase Inhibition Assay
Target sequence in this assay (P14780 94-707): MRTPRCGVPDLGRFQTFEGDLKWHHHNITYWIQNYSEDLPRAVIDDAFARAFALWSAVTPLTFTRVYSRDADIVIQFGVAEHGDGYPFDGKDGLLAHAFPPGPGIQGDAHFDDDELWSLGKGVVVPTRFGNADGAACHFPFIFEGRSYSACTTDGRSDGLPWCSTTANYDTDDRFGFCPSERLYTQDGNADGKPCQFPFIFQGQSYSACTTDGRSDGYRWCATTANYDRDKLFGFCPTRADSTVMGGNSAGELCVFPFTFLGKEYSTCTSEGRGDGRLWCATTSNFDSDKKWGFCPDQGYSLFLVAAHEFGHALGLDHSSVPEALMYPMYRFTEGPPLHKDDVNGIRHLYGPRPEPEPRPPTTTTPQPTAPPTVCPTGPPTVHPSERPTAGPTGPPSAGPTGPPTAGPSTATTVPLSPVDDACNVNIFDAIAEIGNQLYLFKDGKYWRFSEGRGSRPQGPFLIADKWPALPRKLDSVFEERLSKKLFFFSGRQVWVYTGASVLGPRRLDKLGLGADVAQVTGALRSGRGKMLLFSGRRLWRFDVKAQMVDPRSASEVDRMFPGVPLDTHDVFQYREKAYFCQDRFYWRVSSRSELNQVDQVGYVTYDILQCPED

MMP-9 [3] = biological target: T2, MMP-9; test: Biomol MMP-9 colourimetric assay kit AK-410 (thiopeptolide substrate); assay type: biochemical
Description: (§1) Additional In Vitro Metalloproteinase Inhibition Assay
(§2) Compounds were screened using the following commercially available Biomol assay kits:
MMP-9 colourimetric assay kit—Catalogue number AK-410,
(§3) Which are available from Affiniti Research Products Ltd. (Palatine House, Matford Court, Exeter, EX2 8NL, UK).
(§4) (a) Test Compound Preparation.
(§5) Inhibitors were provided in powdered form, and stored at 4° C. For each inhibitor a 1 mM stock solution in DMSO was prepared, dispensed into 20 μl aliquots and these aliquots stored at −20° C. The stock solution was diluted to give 8 inhibitor concentrations (recommended: […], 5 μM, 500 nM, 50 nM, 5 nM, 500 pM, 50 pM and 5 pM). Dilutions were made in the kit assay buffer. A five-fold dilution of the inhibitor stocks is made on addition to the assay wells, therefore final concentration range is from 10 μM to 1 pM.
(§6) (b) Experimental Procedure.
(§7) Details are provided with the commercial kit, but can be summarised as follows:
(§8) Prepare test compound dilutions as above,
(§9) Add assay buffer to plate,
(§10) Add test compounds to plate
(§11) Prepare standard kit inhibitor NNGH (see kit for dilution factor)
(§12) Add NNGH to control inhibitor wells
(§13) Prepare MMP enzyme (see kit for dilution factor)
(§14) Incubate plate at 37° C. for ˜15 min
(§15) Prepare thiopeptolide substrate (see kit for dilution factor)
(§16) Count every 2 min for 1 hr, 37° C., 414 nm on a Labsystems iEMS plate reader.
Target sequence in this assay (P14780 107-444 limits assumed): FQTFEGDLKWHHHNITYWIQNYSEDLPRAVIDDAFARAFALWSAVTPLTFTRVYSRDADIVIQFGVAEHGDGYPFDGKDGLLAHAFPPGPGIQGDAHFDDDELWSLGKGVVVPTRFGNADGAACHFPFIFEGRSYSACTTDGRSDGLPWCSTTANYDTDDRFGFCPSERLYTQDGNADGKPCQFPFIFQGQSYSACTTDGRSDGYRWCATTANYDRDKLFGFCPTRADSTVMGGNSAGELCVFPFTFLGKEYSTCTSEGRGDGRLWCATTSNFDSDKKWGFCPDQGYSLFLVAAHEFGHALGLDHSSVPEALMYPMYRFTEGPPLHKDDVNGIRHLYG

MMP-2 [4] = biological target: MMP-2 (Homo sapiens, UniProt P08253); test: Biomol MMP-2 colourimetric assay kit AK-408 (thiopeptolide substrate); assay type: biochemical
Description: as §1, §2
MMP-2 colourimetric assay kit—Catalogue number AK-408,
as §3, §4, §5, §6, §7, §8, §9, §10, §11, §12, §13, §14, §15, §16

MMP-12 = MMP-12 (Homo sapiens, UniProt P39900); test: Biomol MMP-12 colourimetric assay kit AK-402 (thiopeptolide substrate); assay type: biochemical
Description: as §1, §2
MMP-12 colourimetric assay kit—Catalogue number AK-402,
as §3, §4, §5, §6, §7, §8, §9, §10, §11, §12, §13, §14, §15, §16

MMP-12, sequence (P39900 106-268 limits assumed): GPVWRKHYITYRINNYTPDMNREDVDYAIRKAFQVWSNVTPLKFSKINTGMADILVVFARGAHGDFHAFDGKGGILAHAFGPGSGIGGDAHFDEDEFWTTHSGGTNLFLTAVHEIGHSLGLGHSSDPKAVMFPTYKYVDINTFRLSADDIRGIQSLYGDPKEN

SMILES | IC50 (MMP-2 [1]) [nM] | IC50 (MMP-9 [2]) [nM] | Ki (MMP-9 [3]) [nM] | Ki (MMP-2 [4]) [nM] | other results
C[Si](C)(C)c1ccc(N2CCN(C3(c4ccc(Oc5ccc(Br)cc5)cc4)C(=O)NC(=O)NC3=O)CC2)cc1 |  |  |  |  | melting point: 205 to 210 °C
O=C1NC(=O)C(c2ccc(Oc3ccc(Br)cc3)cc2)(N2CCN(CCO)CC2)C(=O)N1 [Compound 2, 5-[4-(4-bromo-phenoxy)phenyl]-5-[4-(2-hydroxyethyl)piperazin-1-yl]-pyrimidine-2,4,6-trione, reference compound] | 9 | 4 |  |  | 
COc1ccc(Oc2ccc(C3(N4CCN(CCO)CC4)C(=O)NC(=O)NC3=O)cc2)cc1 [Compound 3, 5-[4-(2-hydroxyethyl)piperazin-1-yl]-5-[4 (4-methoxy-phenoxy)phenyl]-pyrimidine-2,4,6-trione, reference compound] | 9 | 6 |  |  | 
O=C1NC(=O)C(c2ccc(Oc3ccc(I)cc3)cc2)(N2CCN(CCO)CC2)C(=O)N1 [Compound 4, 5-[4-(2-Hydroxyethyl)piperazin-1-yl]-5-[4-(4-iodo-phenoxy)phenyl]-pyrimidine-2,4,6-trione] | 7 | 2 |  |  | 
O=C1NC(=O)C(c2ccc(Oc3ccc(Br)cc3)cc2)(N2CCN(CCCF)CC2)C(=O)N1 [Compound 7, 5-[4-(4-Bromophenoxy)phenyl]-5-[4-(3-fluoropropyl)-piperazin-1-yl)-pyrimidine-2,4,6-trione] |  |  | 2 | 11 | 
O=C1NC(=O)C(c2ccc(Oc3ccc(Br)cc3)cc2)(N2CCN(C(=O)CSCCCF)CC2)C(=O)N1 [Compound 9] |  |  | 0.3 | 5 | Ki (MMP-12): 11 nM
CC(=NO)C(C)(C)NCCC(CCNC(=O)CCN1CCN(C2(c3ccc(Oc4ccc(Br)cc4)cc3)C(=O)NC(=O)NC2=O)CC1)CCNC(C)(C)C(C)=NO (stereo not drawn) [Compound 16, 3-(4-{5-[4-(4-Bromophenoxy)-phenyl]-2,4,6-trioxohexahydropyrmidin-5-yl}-piperazin-1-yl)N-{5-(2-hydroxylimino-1,1-dimethylpropylamino)-3-[2-(2-hydroxylamino-1,1-dimethylpropylamino)-ethyl]-pentyl}-propionamide] |  |  | 3 | 14 | 
CC(=NO)C(C)(C)NCCC(CCNC(=O)CCCC(=O)NCCN1CCN(C2(c3ccc(Oc4ccc(Br)cc4)cc3)C(=O)NC(=O)NC2=O)CC1)CCNC(C)(C)C(C)=NO (stereo not drawn) [Compound 17] |  |  | 10 | 29 | Ki (MMP-12; colourimetric kit, thiopeptolide substrate, 37° C., 414 nm, read-out: MMP-12 (Ki)): 157 nM
O=C1NC(=O)C(c2ccc(Oc3ccc(Br)cc3)cc2)(N2CCN(c3ccc(F)cc3)CC2)C(=O)N1 [Compound 20, 5-[4-(4-Bromo-phenoxy)phenyl]-5-[4-(4-fluorophenyl)piperazin-1-yl]-pyrimidine-2,4,6-trione] | 12 | 19 |  |  | 
O=C1NC(=O)C(Nc2ccc(I)cc2)(c2ccc(Oc3ccc(Br)cc3)cc2)C(=O)N1 [Compound 24, 5-[4-(4-Bromophenoxy)-phenyl]-5-(4-iodophenylamino)-pyrimidine-2,4,6-trione] |  |  | 20 | 45 | 
